According to the METLIN SMRT retention time set (Domingo-Almenara et al. 2019):

Experiment: gradient 5% acetonitrile 3 min, to 50% in 2 min, to 85% in 15 min, held 3 min, 100 µL/min
Details: column: Zorbax Extend-C18 2.1 x 50 mm; eluents: water / acetonitrile, 0.1% formic acid
Procedure, shortened: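 Pure standards were analyzed in mixtures of ~100 molecules using HPLC coupled to a quadrupole time-of-flight mass spectrometer, in both positive and negative ionization mode. Separation used a Zorbax Extend-C18 column (2.1 × 50 mm, 1.8 μm) at 100 μL/min, with water and acetonitrile each containing 0.1% formic acid. Dead and dwell volumes were 40 μL and 900 μL, and data were collected over 3 months. Retention time was read from computationally picked adduct peaks, each inspected manually.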

Compound	RP-LC retention time
CCOC(=O)c1c(C)[nH]c(C(=O)N2CCC(C(C)C(=O)N3CCOCC3)CC2)c1C (stereo unspecified)	681 s
Cc1cc(CC(=O)N2CCCn3ccnc3C2C2CCCC2)on1 (stereo unspecified)	587 s
CN1C(=O)CCS(=O)(=O)C1c1ccc(Cl)cc1 (stereo unspecified)	759 s
Cc1cc(C)cc(NC(=O)C2CCCN(S(=O)(=O)c3c[nH]c(C(=O)N4CCCCCC4)c3)C2)c1 (stereo unspecified)	955 s
Cc1ccccc1NC(=O)CN1C(=O)CC(C)S(=O)(=O)c2ccccc21 (stereo unspecified)	760 s
CCN1C(=O)c2cc(C(=O)Nc3ccc(C)c(C)c3)nn2CC1(C)C(=O)NC1CCCC1 (stereo unspecified)	884 s
O=C(NC1CCCCC1)N1CCN(c2ccc3nnc(C4CC4)n3n2)CC1	645 s
Cc1[nH]c(C(=O)N2CCC(CC(=O)NC3CCCCCC3)CC2)c(C)c1C	872 s
COc1ccc(C)cc1NC(=O)C1CCCN1S(=O)(=O)c1cc2c(cc1C)NC(=O)C(C)O2 (stereo unspecified)	880 s
Cc1cccc(NC(=O)CN2C(=O)CCS(=O)(=O)c3ccccc32)c1C	760 s
COc1ccc(C2Nn3c(C)nnc3SC2C(=O)N2CCCCCC2)cc1Br (stereo unspecified)	794 s
CNC(=O)NC1CCN(c2ccc(C)c(C)c2)C1=O (stereo unspecified)	654 s
O=C(c1cn(-c2cc(N3CCSCC3)ncn2)cn1)N1CCCCC1	789 s
Cn1cc(C(=O)NCc2cccc(C(F)(F)F)c2)c2cccnc21	818 s
CCC(c1cccs1)N1C(=O)[C@H]2CN(S(=O)(=O)c3cccnc3)C[C@H]2C1=O (stereo partly specified)	824 s
CC(C)NC(=O)c1ccc(OCC2CCN(C(=O)c3ccccc3Cl)CC2)cc1	820 s
O=C(O)c1ccc(N2CCCC(CN3CCCC3)C2)c(NS(=O)(=O)c2cccc(F)c2)c1 (stereo unspecified)	648 s
O=C(Nc1ccccc1)N1CCC(n2cnc3cc(F)ccc3c2=O)CC1	742 s
Cn1c(=O)c2c(ncn2CC(=O)Nc2cccc(N3CCCS3(=O)=O)c2)n(C)c1=O	595 s
CNC(=O)c1nc(C(C)(C)NC(=O)c2cnccn2)nc2c1OCO2	631 s
CCn1ccc(C(=O)N2CCC3(CC2)NCc2ccccc2-n2ccnc23)n1	579 s
COc1cccc(CNC2=NCCNC23CCN(S(=O)(=O)c2ccc(F)cc2)CC3)c1	695 s
COC[C@@H]1CN(S(=O)(=O)c2cn(C)cn2)C[C@H]1c1ccccn1	567 s
Cc1cc(C)c(S(=O)(=O)N2CCc3nc[nH]c3C2)cc1C	643 s
C=Cc1ccc(CN2C(=O)N(c3ccc(F)cc3)c3ncccc3S2(=O)=O)cc1	886 s
Cc1cccc(CN2C(=O)CN(S(C)(=O)=O)CC2(C)C(=O)NCc2ccc(F)cc2)c1 (stereo unspecified)	856 s
CCOC(=O)C1CCCN(CC(O)COc2ccccc2Br)C1 (stereo unspecified)	590 s
CCN1CCn2cc(S(=O)(=O)Nc3ccccc3Cl)cc2C1=O	706 s
CCOc1ccccc1N(CC)C(=O)C1CCCN(c2ncnc3c2nc2n3CCCCC2)C1 (stereo unspecified)	807 s
O=C(Cn1nc2c(N3CCCCCC3)nccn2c1=O)Nc1ccccc1C(F)(F)F	727 s

More lines, now with the values ahead:

RP-LC retention time	Compound
1200 s	COc1ccc(NC(=O)c2c(O)c3cccnc3n(-c3ccccc3)c2=O)cc1
1150 s	CCn1cc(-c2ccc(F)cc2)cc1C(=O)N1CCC(C)CC1
626 s	Cc1nc(-c2ccccc2)sc1CC(=O)NCCSc1nncn1C
781 s	Cc1csc(-c2ccc(CNC(=O)c3ccoc3)cc2)n1
1330 s	Cc1cc(C)c(S(=O)(=O)N2CCCC2c2nc(-c3ccccc3C)no2)c(C)c1 (stereo unspecified)
1230 s	Cc1nc2cc(-c3noc(-c4ccc(Cl)s4)n3)ccc2o1
684 s	Cc1ccc(-c2nc3ncccn3c2Nc2ccc3c(c2)OCCO3)cc1
601 s	Cc1noc(C)c1Cc1c(C(=O)NCCn2c(C)cnc2C)noc1C
769 s	Cc1ccccc1CNC(=O)c1cc2n(n1)CC(C)(C(=O)NCc1ccccc1)N(C)C2=O (stereo unspecified)
766 s	CCc1noc(NC(C)=O)c1-c1ccc(C)c(S(=O)(=O)NCc2ccco2)c1
1220 s	Cc1ccc(NS(=O)(=O)c2c(C)sc(C)c2-c2cc(C(F)(F)F)on2)cc1C
544 s	O=C(NC1CC1)c1ccc(N2CCC(NCc3cc(F)ccc3O)C2)nc1 (stereo unspecified)
725 s	Cc1ccc(N(C)C(=O)CN(C)S(=O)(=O)c2ccc3c(c2)CCCC(=O)N3)cc1
918 s	CCn1ccc2sc(C)c(C(=O)NCc3cccc(Br)c3)c2c1=O
1010 s	Cn1c(-c2cccs2)c(CNC(=O)Nc2ccc3c(c2)OCO3)c2ccccc21
1020 s	Cc1nc(-c2csc(S(=O)(=O)N3CCCC(C(=O)Nc4ccc(F)c(F)c4)C3)c2)no1 (stereo unspecified)
677 s	Cn1c(-c2cccs2)nn(CCNC(=O)c2ccccc2SC(F)F)c1=O
618 s	Oc1cc2c(c(Cl)c1O)CCNCC2c1ccccc1 (stereo unspecified)

RP-LC retention time	Compound
970 s	O=C(CCc1csc(NC(=O)c2ccccc2)n1)Nc1nc2ccc(Cl)cc2s1
968 s	Cc1ccc2ncn(C3CCN(S(=O)(=O)c4ccc(C)c(F)c4)CC3)c(=O)c2c1
986 s	O=C(COc1ccccc1F)N1CCC(Oc2nc3ccccc3s2)CC1
631 s	CNC(=O)Nc1cccc(-c2ccc(OC)nn2)c1
1020 s	COc1ccc(Cn2cccc2-c2nc(C)no2)cc1
724 s	Cc1ccc(Cl)c(NC(=O)c2[nH]c3cc(C)sc3c2CN2CCOCC2)c1
606 s	Cc1cccc(-c2noc(C3CCCN3C(=O)Nc3ccccc3Cl)n2)c1 (stereo unspecified)
871 s	O=C1NC2(CCN(C(=O)c3ccccc3F)CC2)N=C1c1ccc(Cl)cc1
788 s	O=C(NC1CCCC1)c1nnn(-c2ccc(F)cc2)c1-c1ccncc1
944 s	COc1ccc(N2CC(c3noc(-c4cccc(Cl)c4)n3)CC2=O)cc1OC (stereo unspecified)
1030 s	CCOc1ccccc1-c1noc(Cn2c(=O)n(-c3ccc(Cl)cc3)c(=O)c3sccc32)n1
706 s	O=S(=O)(c1ccc2c(c1)CCCC2)N1CCCn2nc(-c3ccncc3)cc2C1
830 s	Cc1ccc(-n2nc(N3CCN(C(=O)c4cccs4)CC3)ccc2=O)cc1C
1030 s	Cc1nn(-c2nc(-c3ccc(F)cc3)cs2)c(C)c1CC(=O)N1CCCC1
722 s	COc1cccc(C(=O)N2CCN(c3cc(-c4cccs4)[nH]n3)CC2)c1OC
1130 s	Clc1ccc(Nc2nc3ccccc3c3nc(C4CCCCC4)[nH]c23)cc1Cl
1260 s	CC(C)c1ccc(N2C(=O)C3N=NN(Cc4nc(-c5cccc(C(F)(F)F)c5)no4)C3C2=O)cc1 (stereo unspecified)
919 s	O=c1n(Cc2ccc(Cl)cc2)nc2c(S(=O)(=O)N3CCCCC3)cccn12
